Measurements: US8895585B2, “Nicotinamide derivative or salt thereof” (FUJIFILM Corporation, priority 2010, dated 2014)
pIC50: −log10 of the molar value.

Assays:
[1] = biological target: T1, glutathione S-transferase (GST)-fused full-length human Syk protein (Homo sapiens, UniProt P43405); assay: Syk enzyme assay; assay type: biochemical; details: Syk enzyme assay, Test Example 1; read-out: IC50 of Syk-inhibitory activity
T1 construct: (GST)-fused full-length human Syk protein; GST (glutathione S-transferase); purchased Carna Biosciences
Procedure, shortened: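 Baculovirus-expressed enzyme (1.2 ng) was preincubated with compound in HEPES pH 7.0/MgCl2/DTT buffer, 2 min shaking then 13 min at room temperature. Biotin-EDPDYEWPSA-NH2 (0.4 μM final) and ATP (27 μM final) were added for 40 min at room temperature. EDTA stop, streptavidin-XL/PT66-K TR-FRET at 615/665 nm gave IC50.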

[2] = tested on: THP-1 cells; assay: TNFα generation assay; assay type: cell-based, human; details: Homo sapiens, THP-1, THP-1 cells; Table 22; read-out: IC50 in TNFα generation assay
Procedure, shortened: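 THP-1 cells differentiated to macrophage-like cells with 10 ng/ml IFN-γ for 2 days, preincubated with compound 30 min at room temperature, then cultured 7 h on plates coated with human IgG (10 μg/ml). Secreted TNFα measured by ELISA or AlphaLISA.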

pIC50 [1] | pIC50 [2] | Structure (SMILES)
> 8.00 | 6.89 to 7.19 | C[C@H](N)[C@@H](CC1CC1)Nc1nc(Nc2cncc(C3CC3)c2)c(C(N)=O)cc1F [Example 006-350, 6-(((2R,3S)-3-amino-1-cyclopropylbutan-2-yl)amino)-2-((5-cyclopropylpyridin-3-yl)amino)-5-fluoronicotinamide]
> 8.00 | 6.89 to 7.19 | C[C@H](N)[C@@H](CC1CC1)Nc1nc(Nc2cncc(-c3ccccc3)c2)c(C(N)=O)cc1F [Example 006-351, 6-(((2R,3S)-3-amino-1-cyclopropylbutan-2-yl)amino)-5-fluoro-2-((5-phenylpyridin-3-yl)amino)nicotinamide]
> 8.00 | > 7.19 | C[C@H](N)[C@@H](CC1CC1)Nc1nc(Nc2cncc(-n3nccn3)c2)c(C(N)=O)cc1F [Example 006-352, 2-((5-(2H-1,2,3-triazol-2-yl)pyridin-3-yl)amino)-6-(((2R,3S)-3-amino-1-cyclopropylbutan-2-yl)amino)-5-fluoronicotinamide]
> 8.00 | > 7.19 | C[C@H](N)[C@@H](CC1CC1)Nc1nc(Nc2ccnc(-n3cncn3)c2)c(C(N)=O)cc1F [Example 006-353, 2-((2-(1H-1,2,4-triazol-1-yl)pyridin-4-yl)amino)-6-(((2R,3S)-3-amino-1-cyclopropylbutan-2-yl)amino)-5-fluoronicotinamide]
> 8.00 | 6.89 to 7.19 | C[C@H](N)[C@@H](CC1CC1)Nc1nc(Nc2cncc3ccccc23)c(C(N)=O)cc1F [Example 006-354, 6-(((2R,3S)-3-amino-1-cyclopropylbutan-2-yl)amino)-5-fluoro-2-((isoquinolin-4-yl)amino)nicotinamide]
> 8.00 | 6.89 to 7.19 | COc1cc(Nc2nc(N[C@H](CC3CC3)[C@H](C)N)c(F)cc2C(N)=O)ccn1 [Example 006-355, 6-(((2R,3S)-3-amino-1-cyclopropylbutan-2-yl)amino)-5-fluoro-2-((2-methoxypyridin-4-yl)amino)nicotinamide]
> 8.00 | > 7.19 | C[C@H](N)[C@@H](CC1CC1)Nc1nc(Nc2cccc3c2cnn3C)c(C(N)=O)cc1F [Example 006-356, 6-(((2R,3S)-3-amino-1-cyclopropylbutan-2-yl)amino)-5-fluoro-2-((1-methyl-1H-indazol-4-yl)amino)nicotinamide]
7.30 to 8.00 | 6.89 to 7.19 | C[C@H](N)[C@@H](CC1CC1)Nc1nc(Nc2cncc(F)c2)c(C(N)=O)cc1F [Example 006-357, 6-(((2R,3S)-3-amino-1-cyclopropylbutan-2-yl)amino)-5-fluoro-2-((5-fluoropyridin-3-yl)amino)nicotinamide]
> 8.00 | > 7.19 | CC[C@@H](Nc1nc(Nc2ccc3cnn(C)c3c2)c(C(N)=O)cc1F)[C@H](C)N [Example 006-358, 6-(((2S,3R)-2-aminopentan-3-yl)amino)-5-fluoro-2-((1-methyl-1H-indazol-6-yl)amino)nicotinamide]
> 8.00 | > 7.19 | CCC[C@@H](Nc1nc(Nc2ccc3cnn(C)c3c2)c(C(N)=O)cc1F)[C@H](C)N [Example 006-359, 6-(((2S,3R)-2-aminohexan-3-yl)amino)-5-fluoro-2-((1-methyl-1H-indazol-6-yl)amino)nicotinamide]
> 8.00 | 6.89 to 7.19 | CCCC[C@H](CN)Nc1nc(Nc2ccc3cnn(C)c3c2)c(C(N)=O)cc1F [Example 006-360, (R)-6-((1-aminohexan-2-yl)amino)-5-fluoro-2-((1-methyl-1H-indazol-6-yl)amino)nicotinamide]
> 8.00 | 6.89 to 7.19 | C[C@H](N)[C@@H](CC1CC1)Nc1nc(Nc2ccc3cnn(C)c3c2)c(C(N)=O)cc1F [Example 006-361, 6-(((2R,3S)-3-amino-1-cyclopropylbutan-2-yl)amino)-5-fluoro-2-((1-methyl-1H-indazol-6-yl)amino)nicotinamide]
> 8.00 | 6.70 to 6.89 | CC[C@H](N)[C@@H](C)Nc1nc(Nc2ccc3c(cnn3CC)c2)c(C(N)=O)cc1F [Example 006-362, 6-(((2R,3S)-3-aminopentan-2-yl)amino)-2-((1-ethyl-1H-indazol-5-yl)amino)-5-fluoronicotinamide]
> 8.00 | 6.89 to 7.19 | CC[C@H](N)[C@@H](C)Nc1nc(Nc2ccc3c(cnn3CCOC)c2)c(C(N)=O)cc1F [Example 006-363, 6-(((2R,3S)-3-aminopentan-2-yl)amino)-5-fluoro-2-((1-(2-methoxyethyl)-1H-indazol-5-yl)amino)nicotinamide]
> 8.00 | 6.89 to 7.19 | CC[C@H](N)[C@@H](CC)Nc1nc(Nc2ccc3c(cnn3C)c2)c(C(N)=O)cc1F [Example 006-364, 6-(((3R,4S)-4-aminohexan-3-yl)amino)-5-fluoro-2-((1-methyl-1H-indazol-5-yl)amino)nicotinamide]
> 8.00 | 6.89 to 7.19 | CC[C@H](N)[C@@H](CC)Nc1nc(Nc2ccc3c(cnn3CC)c2)c(C(N)=O)cc1F [Example 006-365, 6-(((3R,4S)-4-aminohexan-3-yl)amino)-2-((1-ethyl-1H-indazol-5-yl)amino)-5-fluoronicotinamide]
> 8.00 | > 7.19 | C[C@H](N)[C@H](Nc1nc(Nc2ccc3c(cnn3C)c2)c(C(N)=O)cc1F)C1CC1 [Example 006-369, 6-(((1R,2S)-2-amino-1-cyclopropylpropyl)amino)-5-fluoro-2-((1-methyl-1H-indazol-5-yl)amino)nicotinamide]
> 8.00 | > 7.19 | C[C@H](N)[C@H](Nc1nc(Nc2ccc3cnn(C)c3c2)c(C(N)=O)cc1F)C1CC1 [Example 006-370, 6-(((1R,2S)-2-amino-1-cyclopropylpropyl)amino)-5-fluoro-2-((1-methyl-1H-indazol-6-yl)amino)nicotinamide]
> 8.00 | 6.89 to 7.19 | C[C@H](N)[C@H](Nc1nc(Nc2cncc(C3CC3)c2)c(C(N)=O)cc1F)C1CC1 [Example 006-371, 6-(((1R,2S)-2-amino-1-cyclopropylpropyl)amino)-2-((5-cyclopropylpyridin-3-yl)amino)-5-fluoronicotinamide]
7.30 to 8.00 | 6.89 to 7.19 | C[C@H](N)[C@H](Nc1nc(Nc2cncc(F)c2)c(C(N)=O)cc1F)C1CC1 [Example 006-372, 6-(((1R,2S)-2-amino-1-cyclopropylpropyl)amino)-5-fluoro-2-((5-fluoropyridin-3-yl)amino)nicotinamide]
> 8.00 | > 7.19 | C[C@H](N)[C@H](Nc1nc(Nc2cncc(-n3cccn3)c2)c(C(N)=O)cc1F)C1CC1 [Example 006-373, 2-((5-(1H-pyrazol-1-yl)pyridin-3-yl)amino)-6-(((1R,2S)-2-amino-1-cyclopropylpropyl)amino)-5-fluoronicotinamide]
7.30 to 8.00 | 6.70 to 6.89 | Cc1ncc(Nc2nc(N[C@H](CC3CC3)[C@H](C)N)c(F)cc2C(N)=O)cc1-n1nccn1 [Example 006-374, 6-(((2R,3S)-3-amino-1-cyclopropylbutan-2-yl)amino)-5-fluoro-2-((6-methyl-5-(2H-1,2,3-triazol-2-yl)pyridin-3-yl)amino)nicotinamide]
> 8.00 | 6.89 to 7.19 | CC[C@H](N)[C@@H](CC)Nc1nc(Nc2cncc(C3CC3)c2)c(C(N)=O)cc1F [Example 006-378, 6-(((3R,4S)-4-aminohexan-3-yl)amino)-2-((5-cyclopropylpyridin-3-yl)amino)-5-fluoronicotinamide]
> 8.00 | 6.70 to 6.89 | CC[C@H](N)[C@@H](CC)Nc1nc(Nc2cc(OC)nc(OC)c2)c(C(N)=O)cc1F [Example 006-379, 6-(((3R,4S)-4-aminohexan-3-yl)amino)-2-((2,6-dimethoxypyridin-4-yl)amino)-5-fluoronicotinamide]
7.30 to 8.00 | 6.89 to 7.19 | CC[C@H](N)[C@@H](CC)Nc1nc(Nc2cnc(C)c(-n3nccn3)c2)c(C(N)=O)cc1F [Example 006-380, 6-(((3R,4S)-4-aminohexan-3-yl)amino)-5-fluoro-2-((6-methyl-5-(2H-1,2,3-triazol-2-yl)pyridin-3-yl)amino)nicotinamide]
7.30 to 8.00 | 6.89 to 7.19 | CC[C@H](N)[C@@H](CC)Nc1nc(Nc2ccnc(OC)c2)c(C(N)=O)cc1F [Example 006-381, 6-(((3R,4S)-4-aminohexan-3-yl)amino)-5-fluoro-2-((2-methoxypyridin-4-yl)amino)nicotinamide]
> 8.00 | 6.89 to 7.19 | COCCn1ncc2cc(Nc3nc(N[C@H](CC(C)C)[C@H](C)N)c(F)cc3C(N)=O)ccc21 [Example 006-385, 6-(((2S,3R)-2-amino-5-methylhexan-3-yl)amino)-5-fluoro-2-((1-(2-methoxyethyl)-1H-indazol-5-yl)amino)nicotinamide]
> 8.00 | > 7.19 | Cc1ncc(Nc2nc(N[C@H](CC(C)C)[C@H](C)N)c(F)cc2C(N)=O)cc1-n1nccn1 [Example 006-386, 6-(((2S,3R)-2-amino-5-methylhexan-3-yl)amino)-5-fluoro-2-((6-methyl-5-(2H-1,2,3-triazol-2-yl)pyridin-3-yl)amino)nicotinamide]
> 8.00 | 6.89 to 7.19 | CCCC[C@@H](Nc1nc(Nc2ccc3c(cnn3C)c2)c(C(N)=O)cc1F)[C@H](C)N [Example 006-387, 6-(((2S,3R)-2-aminoheptane-3-yl)amino)-5-fluoro-2-((1-methyl-1H-indazol-5-yl)amino)nicotinamide]
